Reference: ChEMBL document CHEMBL1145534 (2007)
Values after ≈ are worked out from the molar mass of the structure shown.

Key:
Type in all cases: functional
[1] = tested on: Listeria monocytogenes; experiment: Antimicrobial activity against Listeria monocytogenes at 2 ug/ml by broth microdilution method
[2] = tested on: Corynebacterium jeikeium; experiment: Antimicrobial activity against Corynebacterium jeikeium at 1 ug/ml by broth microdilution method
[3] = tested on: Bacillus sp.; experiment: Antimicrobial activity against Bacillus spp. at 2 ug/ml by broth microdilution method; conditions: Bacillus sp. (in: firmicutes)
[4] = tested on: Enterococcus raffinosus; experiment: Antimicrobial activity against Enterococcus raffinosus at 2 ug/ml by broth microdilution method
[5] = tested on: Corynebacterium jeikeium; experiment: Antimicrobial activity against Corynebacterium jeikeium at 0.5 ug/ml by broth microdilution method
[6] = tested on: Enterococcus avium; experiment: Antimicrobial activity against Enterococcus avium at 0.25 ug/ml by broth microdilution method
[7] = tested on: Enterococcus avium; experiment: Antimicrobial activity against Enterococcus avium at 1 ug/ml by broth microdilution method
[8] = tested on: Bacillus sp.; experiment: Antimicrobial activity against Bacillus spp. at 0.25 ug/ml by broth microdilution method; conditions: Bacillus sp. (in: firmicutes)
[9] = tested on: Enterococcus raffinosus; experiment: Antimicrobial activity against Enterococcus raffinosus at 0.12 ug/ml by broth microdilution method
[10] = tested on: Enterococcus gallinarum; experiment: Antimicrobial activity against Enterococcus gallinarum at 0.25 ug/ml by broth microdilution method
[11] = tested on: Enterococcus gallinarum; experiment: Antimicrobial activity against Enterococcus gallinarum at 4 ug/ml by broth microdilution method
[12] = tested on: Streptococcus oralis; experiment: Antimicrobial activity against viridans group Streptococcus oralis at <= 0.06 ug/ml by broth microdilution method
[13] = tested on: Listeria monocytogenes; experiment: Antimicrobial activity against Listeria monocytogenes at 0.25 ug/ml by broth microdilution method
[14] = tested on: Aerococcus; experiment: Antimicrobial activity against Aerococcus spp. at 0.5 ug/ml by broth microdilution method
[15] = tested on: Streptococcus intermedius; experiment: Antimicrobial activity against viridans group Streptococcus intermedius at <= 0.06 ug/ml by broth microdilution method
[16] = tested on: Streptococcus parasanguinis; experiment: Antimicrobial activity against viridans group Streptococcus parasanguis at 0.12 ug/ml by broth microdilution method
[17] = tested on: Corynebacterium amycolatum; experiment: Antimicrobial activity against Corynebacterium amycolatum at 0.12 ug/ml by broth microdilution method
[18] = tested on: Micrococcus luteus; experiment: Antimicrobial activity against Micrococcus luteus by broth microdilution method
[19] = tested on: Corynebacterium striatum; experiment: Antimicrobial activity against Corynebacterium striatum at 0.5 ug/ml by broth microdilution method
[20] = tested on: Enterococcus hirae; experiment: Antimicrobial activity against Enterococcus hirae at 1 ug/ml by broth microdilution method
[21] = tested on: Enterococcus hirae; experiment: Antimicrobial activity against Enterococcus hirae at 2 ug/ml by broth microdilution method
[22] = tested on: Enterococcus raffinosus; experiment: Antimicrobial activity against Enterococcus raffinosus at 0.25 ug/ml by broth microdilution method
[23] = tested on: Enterococcus hirae; experiment: Antimicrobial activity against Enterococcus hirae at <= 0.06 ug/ml by broth microdilution method
[24] = tested on: Aerococcus; experiment: Antimicrobial activity against Aerococcus spp. by broth microdilution method
[25] = tested on: Streptococcus parasanguinis; experiment: Antimicrobial activity against viridans group Streptococcus parasanguis at 1 ug/ml by broth microdilution method
[26] = tested on: Micrococcus luteus; experiment: Antimicrobial activity against Micrococcus luteus at 1 ug/ml by broth microdilution method
[27] = tested on: Streptococcus; experiment: Antimicrobial activity against beta hemolytic Streptococci group G at 0.12 ug/ml by broth microdilution method
[28] = tested on: Streptococcus mutans; experiment: Antimicrobial activity against viridans group Streptococcus mutans at <= 0.06 ug/ml by broth microdilution method
[29] = tested on: Listeria monocytogenes; experiment: Antimicrobial activity against Listeria monocytogenes at 1 ug/ml by broth microdilution method
[30] = tested on: Enterococcus gallinarum; experiment: Antimicrobial activity against Enterococcus gallinarum at 0.5 ug/ml by broth microdilution method
[31] = tested on: Streptococcus parasanguinis; experiment: Antimicrobial activity against viridans group Streptococcus parasanguis at 0.5 ug/ml by broth microdilution method
[32] = tested on: Aerococcus; experiment: Antimicrobial activity against Aerococcus spp. at 2 ug/ml by broth microdilution method
[33] = tested on: Enterococcus casseliflavus; experiment: Antimicrobial activity against Enterococcus casseliflavus at 0.25 ug/ml by broth microdilution method
[34] = tested on: Streptococcus gordonii; experiment: Antimicrobial activity against viridans group Streptococcus gordonii at 1 ug/ml by broth microdilution method
[35] = tested on: Enterococcus avium; experiment: Antimicrobial activity against Enterococcus avium at <= 0.06 ug/ml by broth microdilution method
[36] = tested on: Aerococcus; experiment: Antimicrobial activity against Aerococcus spp. at 0.12 ug/ml by broth microdilution method
[37] = tested on: Enterococcus gallinarum; experiment: Antimicrobial activity against Enterococcus gallinarum at 2 ug/ml by broth microdilution method
[38] = tested on: Corynebacterium sp.; experiment: Antimicrobial activity against Corynebacterium spp. at 1 ug/ml by broth microdilution method
[39] = tested on: Streptococcus equinus; experiment: Antimicrobial activity against viridans group Streptococcus bovis at <= 0.06 ug/ml by broth microdilution method
[40] = tested on: Streptococcus anginosus; experiment: Antimicrobial activity against viridans group Streptococcus anginosus by broth microdilution method
[41] = tested on: Enterococcus avium; experiment: Antimicrobial activity against Enterococcus avium at 0.12 ug/ml by broth microdilution method
[42] = tested on: Corynebacterium pseudodiphtheriticum; experiment: Antimicrobial activity against Corynebacterium pseudodiphtheriticum by broth microdilution method
[43] = tested on: Corynebacterium striatum; experiment: Antimicrobial activity against Corynebacterium striatum by broth microdilution method
[44] = tested on: Bacillus sp.; experiment: Antimicrobial activity against Bacillus spp. at 0.12 ug/ml by broth microdilution method; conditions: Bacillus sp. (in: firmicutes)
[45] = tested on: Bacillus sp.; experiment: Antimicrobial activity against Bacillus spp. at 1 ug/ml by broth microdilution method; conditions: Bacillus sp. (in: firmicutes)
[46] = tested on: Enterococcus durans; experiment: Antimicrobial activity against Enterococcus durans at <= 0.06 ug/ml by broth microdilution method
[47] = tested on: Bacillus sp.; experiment: Antimicrobial activity against Bacillus spp. at <= 0.06 ug/ml by broth microdilution method
[48] = tested on: Enterococcus raffinosus; experiment: Antimicrobial activity against Enterococcus raffinosus at <= 0.06 ug/ml by broth microdilution method
[49] = tested on: Streptococcus equinus; experiment: Antimicrobial activity against viridans group Streptococcus bovis at 1 ug/ml by broth microdilution method
[50] = tested on: Corynebacterium jeikeium; experiment: Antimicrobial activity against Corynebacterium jeikeium at 0.12 ug/ml by broth microdilution method
[51] = tested on: Enterococcus hirae; experiment: Antimicrobial activity against Enterococcus hirae at 0.12 ug/ml by broth microdilution method
[52] = tested on: Streptococcus anginosus; experiment: Antimicrobial activity against viridans group Streptococcus anginosus at <= 0.06 ug/ml by broth microdilution method
[53] = tested on: Corynebacterium pseudodiphtheriticum; experiment: Antimicrobial activity against Corynebacterium pseudodiphtheriticum at 1 ug/ml by broth microdilution method
[54] = tested on: Corynebacterium jeikeium; experiment: Antimicrobial activity against Corynebacterium jeikeium at <= 0.06 ug/ml by broth microdilution method
[55] = tested on: Bacillus cereus; experiment: Antimicrobial activity against Bacillus cereus at 1 ug/ml by broth microdilution method
[56] = tested on: Streptococcus sanguinis; experiment: Antimicrobial activity against viridans group Streptococcus sanguinis by broth microdilution method
[57] = tested on: Streptococcus mitis; experiment: Antimicrobial activity against viridans group Streptococcus mitis at 0.25 ug/ml by broth microdilution method

CC(=O)NC[C@H]1CN(c2ccc(N3CCOCC3)c(F)c2)C(=O)O1 [LINEZOLID]
inhibition at 2 µg/mL [1]: 100%
inhibition at 1 µg/mL [2]: 100%
inhibition at 2 µg/mL [3]: 100%
inhibition at 2 µg/mL [4]: 100%
inhibition at 0.5 µg/mL [5]: 98.3%
inhibition at 0.25 µg/mL [6]: 0%
inhibition at 1 µg/mL [7]: 52.6%
inhibition at 0.25 µg/mL [8]: 4.9%
inhibition at 0.12 µg/mL [9]: 0%
inhibition at 0.25 µg/mL [10]: 0%
inhibition at 4 µg/mL [11]: 100%
Inhibition [12]: 0.7%
inhibition at 0.25 µg/mL [13]: 0%
inhibition at 0.5 µg/mL [14]: 31.8%
Inhibition [15]: 0%
inhibition at 0.12 µg/mL [16]: 0%
inhibition at 0.12 µg/mL [17]: 27.3%
MIC50 [18]: 0.5 µg/mL (≈ 1.48 µM)
MIC90 [18]: 1 µg/mL (≈ 2.96 µM)
inhibition at 0.5 µg/mL [19]: 100%
inhibition at 1 µg/mL [20]: 37.5%
inhibition at 2 µg/mL [21]: 100%
inhibition at 0.25 µg/mL [22]: 0%
Inhibition [23]: 0%
MIC50 [24]: 1 µg/mL (≈ 2.96 µM)
MIC90 [24]: 2 µg/mL (≈ 5.93 µM)
inhibition at 1 µg/mL [25]: 100%
inhibition at 1 µg/mL [26]: 100%
inhibition at 0.12 µg/mL [27]: 0.5%
Inhibition [28]: 0%
inhibition at 1 µg/mL [29]: 29.2%
inhibition at 0.5 µg/mL [30]: 1.7%
inhibition at 0.5 µg/mL [31]: 57.1%
inhibition at 2 µg/mL [32]: 100%
inhibition at 0.25 µg/mL [33]: 0%
inhibition at 1 µg/mL [34]: 100%
Inhibition [35]: 0%
inhibition at 0.12 µg/mL [36]: 0%
inhibition at 2 µg/mL [37]: 99.2%
inhibition at 1 µg/mL [38]: 99.6%
Inhibition [39]: 0%
MIC50 [40]: 1 µg/mL (≈ 2.96 µM)
MIC90 [40]: 1 µg/mL (≈ 2.96 µM)
inhibition at 0.12 µg/mL [41]: 0%
MIC50 [42]: 0.5 µg/mL (≈ 1.48 µM)
MIC90 [42]: 0.5 µg/mL (≈ 1.48 µM)
MIC50 [43]: 0.25 µg/mL (≈ 0.741 µM)
MIC90 [43]: 0.5 µg/mL (≈ 1.48 µM)
inhibition at 0.12 µg/mL [44]: 0.7%
inhibition at 1 µg/mL [45]: 97.2%
Inhibition [46]: 0%
Inhibition [47]: 0.7%
Inhibition [48]: 0%
inhibition at 1 µg/mL [49]: 87.2%
inhibition at 0.12 µg/mL [50]: 5.1%
inhibition at 0.12 µg/mL [51]: 0%
Inhibition [52]: 2.9%
inhibition at 1 µg/mL [53]: 100%
Inhibition [54]: 1.7%
inhibition at 1 µg/mL [55]: 98.3%
MIC50 [56]: 1 µg/mL (≈ 2.96 µM)
MIC90 [56]: 1 µg/mL (≈ 2.96 µM)
inhibition at 0.25 µg/mL [57]: 4.4%
